Tests used:
Test in all cases: competitive isoTOP-ABPP, MDA-MB-231 soluble proteome
Assay type in all cases: binding
CKAP4 = biological target: T1, CKAP4 (Homo sapiens, UniProt Q07065); settings: 100 μM LDE, 60 min; peptide SSSSSSASAAAAAAAASSSASC*SR
T1 construct: directly in native proteomes; endogenous in cells; host or cells: MDA-MB-231
T1 sequence (Q07065 1-602): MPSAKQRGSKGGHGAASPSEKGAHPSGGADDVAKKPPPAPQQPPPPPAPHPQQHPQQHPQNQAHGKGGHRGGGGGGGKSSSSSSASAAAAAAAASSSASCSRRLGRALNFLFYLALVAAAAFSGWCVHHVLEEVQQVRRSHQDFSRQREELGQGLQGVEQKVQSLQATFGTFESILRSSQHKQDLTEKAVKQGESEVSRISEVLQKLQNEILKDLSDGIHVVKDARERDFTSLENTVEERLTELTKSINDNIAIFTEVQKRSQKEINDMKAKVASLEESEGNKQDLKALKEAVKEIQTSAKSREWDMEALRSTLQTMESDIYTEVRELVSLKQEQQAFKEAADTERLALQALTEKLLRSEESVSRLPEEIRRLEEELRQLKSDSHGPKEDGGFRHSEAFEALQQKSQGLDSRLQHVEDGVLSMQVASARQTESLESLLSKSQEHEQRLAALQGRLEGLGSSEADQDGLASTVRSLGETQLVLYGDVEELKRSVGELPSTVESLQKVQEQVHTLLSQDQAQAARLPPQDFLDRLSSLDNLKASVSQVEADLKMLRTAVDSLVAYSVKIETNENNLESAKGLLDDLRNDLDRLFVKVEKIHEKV

MAPK9 = biological target: T2, MAPK9 (Homo sapiens, UniProt P45984); settings: 100 μM LDE, 60 min; peptide TLEEFQDVYLVMELMDANLC*QVIHMELDHER
T2 construct: directly in native proteomes; endogenous in cells; host or cells: MDA-MB-231
T2 sequence (P45984 whole entry): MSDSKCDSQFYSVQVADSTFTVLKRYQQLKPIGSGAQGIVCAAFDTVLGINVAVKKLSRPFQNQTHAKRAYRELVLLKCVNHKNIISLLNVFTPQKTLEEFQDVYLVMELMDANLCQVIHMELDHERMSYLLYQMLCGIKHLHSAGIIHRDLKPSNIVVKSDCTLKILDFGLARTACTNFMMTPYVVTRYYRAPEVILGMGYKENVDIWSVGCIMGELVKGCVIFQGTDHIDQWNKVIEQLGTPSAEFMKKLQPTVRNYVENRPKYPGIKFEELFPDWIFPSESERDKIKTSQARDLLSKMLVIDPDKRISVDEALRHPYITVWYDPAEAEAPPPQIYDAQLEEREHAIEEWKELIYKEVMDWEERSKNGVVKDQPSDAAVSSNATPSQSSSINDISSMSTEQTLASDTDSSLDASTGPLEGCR

CHRAC1 = biological target: T3, CHRAC1 (Homo sapiens, UniProt Q9NRG0); settings: 100 μM LDE, 60 min; peptide ATELFVQC*LATYSYR
T3 construct: directly in native proteomes; endogenous in cells; host or cells: MDA-MB-231
T3 sequence (Q9NRG0 1-131): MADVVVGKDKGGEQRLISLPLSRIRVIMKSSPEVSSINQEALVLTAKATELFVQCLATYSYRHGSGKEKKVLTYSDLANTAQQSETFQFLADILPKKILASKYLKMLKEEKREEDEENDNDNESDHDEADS

Row | Compound | R value (isoTOP-ABPP ratio heavy/light) for IA-labeled cysteine of CKAP4 (CKAP4) | R value (isoTOP-ABPP ratio heavy/light) for IA-labeled cysteine of MAPK9 (MAPK9) | R value (isoTOP-ABPP ratio heavy/light) for IA-labeled cysteine of CHRAC1 (CHRAC1)
1 | CCCCCCCCCCCCC/C=C/C=O [2-HD, 2-trans-hexadecenal] | 1.08 | 1.14 | 1.06
2 | CCCCCC(O)/C=C/C=O (stereo not drawn) [4-HNE, 4-Hydroxynonenal] | 7.73 | 5.08 | 1.94
3 | CCCCC/C=C/C=C1/C(=O)C=C[C@@H]1C/C=C\CCCC(=O)O [PGJ2, 15-deoxy-Δ12,14-prostaglandin J2] | 3.33 | 1.78 | 12.32

From patent US10782295B2, “Cysteine-reactive ligand discovery in proteomes” (THE SCRIPPS RESEARCH INSTITUTE, priority 2013, dated 2020)
